Experiment [1] concerns the target MAP kinase-activated protein kinase 2 (Homo sapiens) (UniProt P49137). Description: Inhibition of MAPKAPK2 (unknown origin) at 1 uM by Ambit Kinomescan binding assay relative to control.
Experiment [2] deals with Cyclin-dependent kinase 7 (Homo sapiens) (UniProt P50613). Description: Inhibition of CDK7 Lys2 labeling site in human A-375 cells at 5 uM by KiNativ Profiling analysis relative to control. The format is cell-based.
For experiment [3] the target is unchanged. Description: Inhibition of CDK7 Lys2 labeling site in human A-375 cells at 0.5 uM by KiNativ Profiling analysis relative to control. It counts as cell-based.
Experiment [4] concerns the target Phosphatidylinositol 4-kinase alpha (Homo sapiens) (UniProt P42356). As to the kind of experiment: Inhibition of PI4KA ATP labeling site in human A-375 cells at 0.05 uM by KiNativ Profiling analysis relative to control. It counts as cell-based.
Experiment [5] deals with Serine/threonine-protein kinase PAK 3 (Homo sapiens) (UniProt O75914). As to the kind of experiment: Inhibition of PAK3 (unknown origin) at 10 uM by Ambit Kinomescan binding assay.
Chain of Serine/threonine-protein kinase PAK 3 (Homo sapiens) (O75914 whole entry, looked up): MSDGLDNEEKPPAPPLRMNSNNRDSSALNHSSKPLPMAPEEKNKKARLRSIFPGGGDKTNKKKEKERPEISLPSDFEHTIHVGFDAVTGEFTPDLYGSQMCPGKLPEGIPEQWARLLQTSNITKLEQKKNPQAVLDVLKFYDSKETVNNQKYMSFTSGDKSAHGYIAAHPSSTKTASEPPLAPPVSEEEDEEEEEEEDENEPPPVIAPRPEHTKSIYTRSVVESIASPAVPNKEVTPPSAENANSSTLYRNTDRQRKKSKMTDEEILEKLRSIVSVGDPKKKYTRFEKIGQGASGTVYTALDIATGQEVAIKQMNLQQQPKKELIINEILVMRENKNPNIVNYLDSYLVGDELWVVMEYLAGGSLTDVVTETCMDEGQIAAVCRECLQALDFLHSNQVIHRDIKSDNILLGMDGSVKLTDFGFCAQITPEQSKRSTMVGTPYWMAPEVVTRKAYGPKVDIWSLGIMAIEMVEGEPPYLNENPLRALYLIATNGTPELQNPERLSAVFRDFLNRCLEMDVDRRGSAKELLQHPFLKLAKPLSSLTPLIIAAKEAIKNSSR
In experiment [6] the target is Epidermal growth factor receptor (Homo sapiens) (UniProt P00533). Description: Inhibition of EGFR ACT labeling site harbouring ITDFGLAKLLGAEEK in human A-375 cells at 5 uM by KiNativ Profiling analysis relative to control. It counts as cell-based.
Chain of Epidermal growth factor receptor (Homo sapiens) (P00533 whole entry): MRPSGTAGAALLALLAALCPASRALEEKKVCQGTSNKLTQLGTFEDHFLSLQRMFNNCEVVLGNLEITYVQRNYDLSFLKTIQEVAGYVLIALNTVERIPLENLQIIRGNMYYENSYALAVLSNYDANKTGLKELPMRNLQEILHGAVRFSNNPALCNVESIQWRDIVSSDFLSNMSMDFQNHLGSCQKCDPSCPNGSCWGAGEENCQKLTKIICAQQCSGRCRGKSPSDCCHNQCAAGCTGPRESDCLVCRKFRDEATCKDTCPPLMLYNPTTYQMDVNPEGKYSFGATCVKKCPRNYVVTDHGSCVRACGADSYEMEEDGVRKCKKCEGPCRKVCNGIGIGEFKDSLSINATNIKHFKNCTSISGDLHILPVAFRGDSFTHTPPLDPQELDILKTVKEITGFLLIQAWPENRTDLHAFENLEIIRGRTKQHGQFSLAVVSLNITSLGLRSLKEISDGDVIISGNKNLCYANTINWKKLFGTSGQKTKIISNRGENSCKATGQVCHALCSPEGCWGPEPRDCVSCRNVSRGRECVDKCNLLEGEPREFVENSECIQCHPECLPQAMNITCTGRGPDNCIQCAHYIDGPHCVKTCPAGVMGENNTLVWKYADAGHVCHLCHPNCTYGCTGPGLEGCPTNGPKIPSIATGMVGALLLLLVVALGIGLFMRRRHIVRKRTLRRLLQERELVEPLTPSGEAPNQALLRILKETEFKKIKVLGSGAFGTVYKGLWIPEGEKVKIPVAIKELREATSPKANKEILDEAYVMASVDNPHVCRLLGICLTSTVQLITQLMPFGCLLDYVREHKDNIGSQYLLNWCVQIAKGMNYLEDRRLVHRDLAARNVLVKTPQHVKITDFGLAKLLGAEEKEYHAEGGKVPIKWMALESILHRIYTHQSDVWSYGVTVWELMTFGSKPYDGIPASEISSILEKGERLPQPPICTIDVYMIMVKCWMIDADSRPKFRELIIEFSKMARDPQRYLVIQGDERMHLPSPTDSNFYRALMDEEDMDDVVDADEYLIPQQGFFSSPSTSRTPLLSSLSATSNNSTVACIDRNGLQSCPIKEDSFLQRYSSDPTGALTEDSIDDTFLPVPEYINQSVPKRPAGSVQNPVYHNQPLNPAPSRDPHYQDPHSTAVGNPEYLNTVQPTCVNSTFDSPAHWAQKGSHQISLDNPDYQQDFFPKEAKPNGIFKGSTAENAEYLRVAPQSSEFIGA
In experiment [7] the target is Tyrosine-protein kinase Yes (Homo sapiens) (UniProt P07947). Description: Inhibition of YES ACT labeling site in human Huh-7 cells at 10 uM by KiNativ Profiling analysis relative to control. The format is cell-based.
Chain of Tyrosine-protein kinase Yes (Homo sapiens) (P07947 2-543 limits assumed): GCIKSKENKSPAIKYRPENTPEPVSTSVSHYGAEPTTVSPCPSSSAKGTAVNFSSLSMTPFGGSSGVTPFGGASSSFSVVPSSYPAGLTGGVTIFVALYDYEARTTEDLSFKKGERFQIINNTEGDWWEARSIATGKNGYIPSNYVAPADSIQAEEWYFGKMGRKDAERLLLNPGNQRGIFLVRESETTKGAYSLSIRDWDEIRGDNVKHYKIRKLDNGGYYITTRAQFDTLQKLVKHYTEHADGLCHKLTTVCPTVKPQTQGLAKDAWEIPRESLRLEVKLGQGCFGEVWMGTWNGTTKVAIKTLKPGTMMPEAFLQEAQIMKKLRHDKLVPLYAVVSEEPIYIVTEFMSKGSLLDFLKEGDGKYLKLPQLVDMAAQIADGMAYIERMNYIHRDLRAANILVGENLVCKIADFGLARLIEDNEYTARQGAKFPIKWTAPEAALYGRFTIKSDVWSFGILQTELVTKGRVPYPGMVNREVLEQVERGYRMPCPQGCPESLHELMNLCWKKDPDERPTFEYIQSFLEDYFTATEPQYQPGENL
Experiment [8] deals with T1, PAN2-PAN3 deadenylation complex subunit PAN3 (Homo sapiens) (UniProt Q58A45).
T1 sequence (whole entry): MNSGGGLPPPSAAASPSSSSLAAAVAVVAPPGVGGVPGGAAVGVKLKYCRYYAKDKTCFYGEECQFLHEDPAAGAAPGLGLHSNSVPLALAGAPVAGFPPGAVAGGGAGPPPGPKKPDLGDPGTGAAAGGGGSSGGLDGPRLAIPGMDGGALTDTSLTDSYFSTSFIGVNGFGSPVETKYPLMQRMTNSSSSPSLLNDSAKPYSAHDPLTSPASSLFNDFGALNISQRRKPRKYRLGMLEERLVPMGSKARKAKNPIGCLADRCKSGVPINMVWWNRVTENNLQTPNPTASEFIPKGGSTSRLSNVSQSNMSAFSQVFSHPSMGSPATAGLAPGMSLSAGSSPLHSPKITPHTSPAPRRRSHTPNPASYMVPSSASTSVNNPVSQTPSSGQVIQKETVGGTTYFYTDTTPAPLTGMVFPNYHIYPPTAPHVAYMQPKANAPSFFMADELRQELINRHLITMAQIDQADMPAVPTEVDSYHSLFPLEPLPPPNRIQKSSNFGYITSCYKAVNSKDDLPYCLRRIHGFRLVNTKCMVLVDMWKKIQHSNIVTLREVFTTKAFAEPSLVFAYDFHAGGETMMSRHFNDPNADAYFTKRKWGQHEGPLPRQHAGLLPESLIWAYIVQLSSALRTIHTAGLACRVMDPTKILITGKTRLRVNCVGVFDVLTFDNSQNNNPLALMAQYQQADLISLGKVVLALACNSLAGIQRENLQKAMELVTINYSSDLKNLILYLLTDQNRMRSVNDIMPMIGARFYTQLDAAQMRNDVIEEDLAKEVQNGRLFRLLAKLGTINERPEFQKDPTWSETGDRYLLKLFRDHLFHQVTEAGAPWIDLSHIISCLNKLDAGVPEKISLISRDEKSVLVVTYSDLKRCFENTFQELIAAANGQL
As to the kind of experiment: Inhibition of PAN3 KD labeling site in human Huh-7 cells at 10 uM by KiNativ Profiling analysis relative to control. The format is cell-based.

Experiment [9] has as its target RPS6KA1/RPS6KA2/RPS6KA3 (Homo sapiens) (UniProt P51812+Q15349+Q15418). As to the kind of experiment: Inhibition of RSK1/2/3 Domain 1 K2 labeling site harbouring DLKPENILLDEEGHIKLTDFGLSK in human Huh-7 cells at 10 uM by KiNativ Profiling analysis relative to control. It counts as cell-based.
In experiment [10] the target is T2, Phosphatidylinositol 5-phosphate 4-kinase type-2 alpha (Homo sapiens) (UniProt P48426).
T2 sequence (whole entry): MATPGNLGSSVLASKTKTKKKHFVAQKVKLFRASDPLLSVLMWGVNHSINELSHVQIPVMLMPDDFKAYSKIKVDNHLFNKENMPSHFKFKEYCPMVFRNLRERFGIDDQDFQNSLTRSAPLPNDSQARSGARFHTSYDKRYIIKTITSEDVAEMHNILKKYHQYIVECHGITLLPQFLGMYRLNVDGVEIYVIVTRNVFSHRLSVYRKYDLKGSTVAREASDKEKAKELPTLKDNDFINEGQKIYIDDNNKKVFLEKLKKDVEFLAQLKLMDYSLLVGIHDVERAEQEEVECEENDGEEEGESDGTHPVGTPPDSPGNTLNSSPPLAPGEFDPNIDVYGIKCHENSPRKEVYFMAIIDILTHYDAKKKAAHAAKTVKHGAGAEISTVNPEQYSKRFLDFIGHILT
Description: Inhibition of PIP5K2A LIP labeling site in human Huh-7 cells at 1 uM by KiNativ Profiling analysis relative to control. The format is cell-based.

The target in experiment [11] is Tyrosine-protein kinase Fyn (Homo sapiens) (UniProt P06241). Description: Inhibition of FYN (unknown origin) at 10 uM by Ambit Kinomescan binding assay relative to control; values are per cent of control.
Chain of Tyrosine-protein kinase Fyn (Homo sapiens) (P06241 2-537 limits assumed): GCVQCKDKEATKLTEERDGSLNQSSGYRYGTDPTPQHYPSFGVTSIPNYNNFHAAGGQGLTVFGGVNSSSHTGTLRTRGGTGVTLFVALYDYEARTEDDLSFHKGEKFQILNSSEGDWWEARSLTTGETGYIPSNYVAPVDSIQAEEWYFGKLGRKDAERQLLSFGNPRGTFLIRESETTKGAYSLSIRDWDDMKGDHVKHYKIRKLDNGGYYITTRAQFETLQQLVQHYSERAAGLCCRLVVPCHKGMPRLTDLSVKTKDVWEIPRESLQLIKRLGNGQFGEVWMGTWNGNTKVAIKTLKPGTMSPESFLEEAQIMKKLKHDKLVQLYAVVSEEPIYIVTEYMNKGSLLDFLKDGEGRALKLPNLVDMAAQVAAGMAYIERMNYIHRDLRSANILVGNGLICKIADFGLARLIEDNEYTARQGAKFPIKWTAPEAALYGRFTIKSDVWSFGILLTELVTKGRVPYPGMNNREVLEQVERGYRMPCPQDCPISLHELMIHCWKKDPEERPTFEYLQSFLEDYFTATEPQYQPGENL
Experiment [12] has as its target Tyrosine-protein kinase ABL1 (Homo sapiens, UniProt P00519). As to the kind of experiment: Inhibition of ABL1 (unknown origin) at 10 uM by Ambit Kinomescan binding assay relative to control; values are per cent of control.
For experiment [13], the target named is T3, Scaffold protein ILK (Homo sapiens) (UniProt Q13418).
T3 sequence (whole entry): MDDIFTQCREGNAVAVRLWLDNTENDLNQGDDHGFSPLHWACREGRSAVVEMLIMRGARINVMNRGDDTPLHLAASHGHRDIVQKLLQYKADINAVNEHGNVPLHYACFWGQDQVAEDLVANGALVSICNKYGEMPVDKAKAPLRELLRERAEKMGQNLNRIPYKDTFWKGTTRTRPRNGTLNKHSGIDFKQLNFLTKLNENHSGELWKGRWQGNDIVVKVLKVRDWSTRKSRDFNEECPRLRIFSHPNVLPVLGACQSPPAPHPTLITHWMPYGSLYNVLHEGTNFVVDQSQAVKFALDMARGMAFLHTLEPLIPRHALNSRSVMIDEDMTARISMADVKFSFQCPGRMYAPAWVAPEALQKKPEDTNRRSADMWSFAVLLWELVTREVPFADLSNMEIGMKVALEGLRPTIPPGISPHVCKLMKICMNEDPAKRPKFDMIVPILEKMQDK
Description: Inhibition of ILK Protein Kinase Domain labeling site in human Huh-7 cell lysate at 1 uM by KiNativ Profiling analysis relative to control. The format is subcellular.

In experiment [14] the target is Rho-associated protein kinase 1 (Homo sapiens) (UniProt Q13464). As to the kind of experiment: Inhibition of ROCK1 in human Huh-7 cell lysate at 1 uM by KiNativ Profiling analysis relative to control. The format is subcellular.
Chain of Rho-associated protein kinase 1 (Homo sapiens) (Q13464 2-1354 limits assumed): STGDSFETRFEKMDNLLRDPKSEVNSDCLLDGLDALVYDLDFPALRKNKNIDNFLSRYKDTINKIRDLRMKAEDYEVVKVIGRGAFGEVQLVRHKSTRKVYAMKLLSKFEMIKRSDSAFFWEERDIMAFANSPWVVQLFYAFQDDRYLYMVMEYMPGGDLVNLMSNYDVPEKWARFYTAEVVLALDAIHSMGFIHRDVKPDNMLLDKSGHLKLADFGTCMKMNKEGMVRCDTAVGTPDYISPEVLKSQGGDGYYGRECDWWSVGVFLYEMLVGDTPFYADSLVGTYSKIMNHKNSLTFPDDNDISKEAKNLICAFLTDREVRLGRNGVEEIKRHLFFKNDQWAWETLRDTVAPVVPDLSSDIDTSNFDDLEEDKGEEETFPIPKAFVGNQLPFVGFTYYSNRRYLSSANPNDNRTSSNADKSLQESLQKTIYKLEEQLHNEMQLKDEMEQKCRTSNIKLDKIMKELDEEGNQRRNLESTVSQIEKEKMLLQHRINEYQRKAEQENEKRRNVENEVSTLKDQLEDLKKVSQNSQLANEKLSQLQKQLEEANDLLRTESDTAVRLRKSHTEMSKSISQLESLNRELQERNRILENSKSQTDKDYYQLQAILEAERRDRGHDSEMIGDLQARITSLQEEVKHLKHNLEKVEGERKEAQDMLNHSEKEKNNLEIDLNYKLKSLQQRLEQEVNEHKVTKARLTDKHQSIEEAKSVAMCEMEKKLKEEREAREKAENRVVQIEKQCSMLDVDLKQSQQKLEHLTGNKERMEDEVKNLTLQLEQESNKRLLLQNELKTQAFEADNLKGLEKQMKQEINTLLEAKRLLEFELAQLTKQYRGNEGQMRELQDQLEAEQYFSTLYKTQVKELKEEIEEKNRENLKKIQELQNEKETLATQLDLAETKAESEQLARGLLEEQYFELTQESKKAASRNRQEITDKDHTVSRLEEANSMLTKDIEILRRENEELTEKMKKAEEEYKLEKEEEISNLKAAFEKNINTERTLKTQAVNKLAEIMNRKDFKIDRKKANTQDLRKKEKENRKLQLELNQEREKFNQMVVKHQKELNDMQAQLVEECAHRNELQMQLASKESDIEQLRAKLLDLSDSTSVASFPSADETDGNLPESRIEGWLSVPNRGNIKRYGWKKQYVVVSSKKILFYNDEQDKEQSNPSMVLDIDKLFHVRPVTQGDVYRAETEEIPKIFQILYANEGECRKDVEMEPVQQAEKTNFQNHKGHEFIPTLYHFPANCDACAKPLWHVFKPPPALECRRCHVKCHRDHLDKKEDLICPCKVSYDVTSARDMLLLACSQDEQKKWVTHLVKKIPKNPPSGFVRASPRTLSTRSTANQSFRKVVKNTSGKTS

SMILES strings stand for the structures. Calls of active or inactive are those of the source. The rule behind the calls is not given here.

Chain of Cyclin-dependent kinase 7 (Homo sapiens) (P50613 whole entry): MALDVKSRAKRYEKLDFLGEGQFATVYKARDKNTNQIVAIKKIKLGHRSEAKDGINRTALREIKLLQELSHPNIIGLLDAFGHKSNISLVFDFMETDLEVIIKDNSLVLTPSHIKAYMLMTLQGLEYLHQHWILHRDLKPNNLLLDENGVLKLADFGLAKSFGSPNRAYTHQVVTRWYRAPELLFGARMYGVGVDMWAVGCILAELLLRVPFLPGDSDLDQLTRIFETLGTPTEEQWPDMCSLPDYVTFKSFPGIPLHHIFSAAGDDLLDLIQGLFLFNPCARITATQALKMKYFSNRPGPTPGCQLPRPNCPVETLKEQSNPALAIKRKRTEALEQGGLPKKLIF
Chain of MAP kinase-activated protein kinase 2 (Homo sapiens) (P49137 whole entry, looked up): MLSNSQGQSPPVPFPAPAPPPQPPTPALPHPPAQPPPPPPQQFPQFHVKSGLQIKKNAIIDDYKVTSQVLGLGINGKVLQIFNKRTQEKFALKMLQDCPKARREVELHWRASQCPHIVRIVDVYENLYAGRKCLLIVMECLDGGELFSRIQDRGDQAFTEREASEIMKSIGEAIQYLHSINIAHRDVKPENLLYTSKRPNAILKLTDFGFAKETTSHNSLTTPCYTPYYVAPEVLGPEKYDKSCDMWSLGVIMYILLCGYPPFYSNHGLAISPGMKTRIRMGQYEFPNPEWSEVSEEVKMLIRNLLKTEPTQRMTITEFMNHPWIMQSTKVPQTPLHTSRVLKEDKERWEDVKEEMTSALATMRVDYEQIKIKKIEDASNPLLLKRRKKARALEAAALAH

With `CCN1CCN(Cc2ccc(NC(=O)c3ccc(C)c(/C=C/c4cnc5[nH]ccc5c4OC)c3)cc2C(F)(F)F)CC1`, the inhibition in [1] was determined as 100%; in [2], 38.7%; in experiment [3] it was 36.2%; in experiment [4], 0.8%.
In the case of `CCN1CCN(Cc2ccc(NC(=O)c3ccc(C)c(Oc4ccnc5[nH]ccc45)c3)cc2C(F)(F)F)CC1`, in experiment [5], the inhibition entry is “inactive”. For the same compound, the inhibition is 5.4% in experiment [6]; 25.2% in experiment [7]; 4.5% in [8]; -6.5% in experiment [9]; -0.3% in experiment [10]. Moreover, the results for the percent of control in [11] and in [12] were 1.6% and 0.1%, respectively.
As for `CNc1cc(Oc2cc(C(=O)Nc3cc(N4CCN(C)CC4)cc(C(F)(F)F)c3)ccc2C)ncn1`, the inhibition in experiment [13] is -2.4%; in [14] it was 7.6%.

Broadly, the inhibition is the change of the read-out against control, counted positive when it falls.

These data come from ChEMBL document CHEMBL5696442, “Discovery of type II inhibitors of TGFβ-activated kinase 1 (TAK1) and mitogen-activated protein kinase kinase kinase kinase 2 (MAP4K2)” (J Med Chem, 2015).
